Here are results for five compounds from the NIST ThermoML archive (doi:10.1016/j.jct.2016.07.037).

Data set [1] is described as follows: molar enthalpy of vaporization or sublimation. The note with it: 298.15 K; Crystal; Static calorimetry.
A short description of data set [2]: molar heat capacity at constant pressure. The note with it: 298.15 K; 101.33 kPa; Crystal; Drop calorimetry.
For data set [3] the following is noted: Crystal; for vapor or sublimation pressure: Calculated from knudsen effusion weight loss; for Normal melting temperature: DTA.
Data set [4] in a line: Molar enthalpy of transition or fusion. The note with it: Crystal; DSC.

± gives the expanded uncertainty stated by the source.

Turning to `OCC(F)(F)C(F)(F)C(F)(F)C(F)(F)C(F)(F)C(F)(F)C(F)(F)C(F)(F)C(F)(F)C(F)(F)C(F)(F)C(F)(F)C(F)(F)F`, the molar enthalpy in data set [1] is 30.2 ± 0.932 kcal/mol. Besides, in data set [2], the “molar heat capacity at constant pressure” value was determined as 725.3 ± 17 J/K/mol. Further, the “vapor or sublimation pressure” value is listed as 0.00014 ± 2.1e-05 kPa in data set [3] (328.6 K); 0.000172 ± 2.1e-05 kPa in data set [3] (330.6 K); 0.000231 ± 2.2e-05 kPa in data set [3] (332.5 K); 0.000302 ± 2.3e-05 kPa in data set [3] (334.5 K); 0.000391 ± 2.4e-05 kPa in data set [3] (336.5 K); 0.000502 ± 2.7e-05 kPa in data set [3] (338.4 K). The “vapor or sublimation pressure” value in data set [3] (340.4 K) is reported as 0.000642 ± 3e-05 kPa. The Normal melting temperature in data set [3] was found to be 139.2 ± 0.5 °C. Moreover, in data set [4], the “Molar enthalpy of transition or fusion” value was found to be 9.08 ± 0.454 kcal/mol.

In the case of `OCC(F)(F)C(F)(F)C(F)(F)C(F)(F)C(F)(F)C(F)(F)C(F)(F)C(F)(F)C(F)(F)F` [1H,1H-perfluoro-1-decanol], the “molar heat capacity at constant pressure” value in data set [2] amounted to 563.9 ± 13 J/K/mol.

For `OCC(F)(F)C(F)(F)C(F)(F)C(F)(F)C(F)(F)C(F)(F)C(F)(F)C(F)(F)C(F)(F)C(F)(F)C(F)(F)F` [1H,1H-perfluoro-1-dodecanol], the molar enthalpy in data set [1] turned out to be 26.4 ± 0.86 kcal/mol. Besides, the “molar heat capacity at constant pressure” value in data set [2] was determined as 645.2 ± 15 J/K/mol. Further, the “vapor or sublimation pressure” value in data set [3] (303.6 K) is recorded as 6.95e-05 ± 2e-05 kPa; in data set [3] (306.1 K) it was 0.0001 ± 2e-05 kPa; in data set [3] (308.6 K), 0.000143 ± 2.1e-05 kPa; in data set [3] (311 K), 0.000196 ± 2.1e-05 kPa; in data set [3] (313.5 K) it was 0.000273 ± 2.2e-05 kPa; in data set [3] (316 K), 0.000376 ± 2.4e-05 kPa. Moreover, the entries for the “vapor or sublimation pressure” value in data set [3] (318.5 K), in data set [3] (321 K) and in data set [3] (323.5 K) were 0.000517 ± 2.7e-05 kPa, 0.000727 ± 3.3e-05 kPa and 0.001007 ± 7.8e-05 kPa, respectively. Besides, the Normal melting temperature in data set [3] came to 114.2 ± 1.3 °C. Further, the “Molar enthalpy of transition or fusion” value in data set [4] amounted to 5.88 ± 0.311 kcal/mol.

`OCC(F)(F)C(F)(F)C(F)(F)C(F)(F)C(F)(F)C(F)(F)C(F)(F)C(F)(F)C(F)(F)C(F)(F)F` [1H,1H-perfluoroundecan-1-ol]: in data set [2], the “molar heat capacity at constant pressure” value is 602.4 ± 14 J/K/mol.

For `OCC(F)(F)C(F)(F)C(F)(F)C(F)(F)C(F)(F)C(F)(F)C(F)(F)C(F)(F)F` [2,2,3,3,4,4,5,5,6,6,7,7,8,8,9,9,9-heptadecafluoro-1-nonanol], the “molar heat capacity at constant pressure” value in data set [2] turned out to be 515.9 ± 12 J/K/mol.
